# Measurements reported in US11931365B2, “Use of PPAR-delta agonists in the treatment of disease” (Reneo Pharmaceuticals, Inc., priority 2022, dated 2024).
# Tests used:
# [1] = test system: human muscle cell lines; test: Fatty acid oxidation in muscle cell lines; type: cell-based
# [2] = test system: patients with primary mitochondrial myopathy; test: Clinical trial for primary mitochondrial myopathy (PMM); type: in vivo, human
# [3] = test system: Angiopoietin-like 4 (ANGPTL4); test: In vivo expression of PPAR regulated target gene in muscle; details: rat muscle
# [4] = test system: PPARδ regulated genes (CPT1b, PGC-1α); test: In vivo expression of PPARδ regulated genes in muscle; details: mice muscle
# [5] = test system: rat muscle cell lines; test: Fatty acid oxidation in muscle cell lines; type: cell-based
# [6] = 100 mg once daily, 12 weeks, listed as Compound 1
structure (smiles),measurement,setting,value
"Cc1cc(OC/C=C(/c2ccc(F)cc2)c2ccc(C#CCN3CCOCC3)cc2)ccc1OCC(=O)O [Compound I, (E)-2-(4-((3-(4-fluorophenyl)-3-(4-(3-morpholinoprop-1-yn-1-yl)phenyl)allyl)oxy)-2-methylphenoxy)acetic acid]",fatty acid oxidation,[1],dose-dependent increase
same,Modified Fatigue Impact Scale scores,"[2]; 100 mg once daily, 12 weeks",trends towards increases
same,brief pain inventory (BPI) score,"[2]; 100 mg once daily, 12 weeks",Decreases
same,distance walked during a 12-minute walk test,"[2]; 100 mg once daily, 12 weeks",able to increase the distance walked
same,peak VO2,"[2]; 100 mg once daily, 12 weeks",trends towards increases
same,brief pain inventory (BPI) score,[2]; [6],decreased
same,distance walked during a 12-minute walk test,[2]; [6],Improvements
same,tolerability,[2]; PMM patients,well tolerated
same,expression of ANGPTL4,[3],increased the expression
same,"expression patterns of PPARδ regulated genes (CPT1b, PGC-1α)",[4],altered the expression patterns
same,fatty acid oxidation,[5],dose-dependent increase
